Source: PubChem BioAssay (NCI)
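Assay format: 96-well plates, 48-hour exposure. TGI: total growth inhibition.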

Legend:
Test in all cases: DTP human tumour cell line panel, 48 h
[1] = system: BT-549 breast
[2] = system: CAKI-1 renal
[3] = system: COLO 205 colon
[4] = system: SNB-19 CNS
[5] = system: RXF 393 renal
[6] = system: SW-620 colon
[7] = system: UACC-257 melanoma
[8] = system: SR leukemia
[9] = system: RPMI-8226 leukemia
[10] = system: MDA-N
[11] = system: 786-0 renal

Structure (SMILES): Oc1ccc(Cl)cc1-c1cc(-c2ccccc2)nc(NCN2CCCCC2)n1
- TGI [1]: > 100 µM
- TGI [2]: > 100 µM
- TGI [3]: > 100 µM
- TGI [4]: > 100 µM
- TGI [5]: > 100 µM
- TGI [6]: > 100 µM
- TGI [7]: > 100 µM
- TGI [8]: > 100 µM
- TGI [9]: > 100 µM
- TGI [10]: > 100 µM
- TGI [11]: > 100 µM

Structure (SMILES): CC(=O)c1ccccc1NCC(=O)Nn1cnc2ccc(S(=O)(=O)Nc3ccccc3C(C)=O)cc2c1=O
- TGI [1]: > 100 µM
- TGI [2]: > 100 µM
- TGI [3]: > 100 µM
- TGI [4]: > 100 µM
- TGI [6]: > 100 µM
- TGI [7]: > 100 µM
- TGI [8]: > 100 µM
- TGI [9]: > 100 µM
- TGI [10]: > 100 µM
- TGI [11]: > 100 µM

Structure (SMILES): O=C(O)C[C@@H]1[C@@H](O)[C@@H](O)CN2C(=O)c3ccccc3[C@H]12
- TGI [1]: > 100 µM
- TGI [2]: > 100 µM
- TGI [3]: > 100 µM
- TGI [4]: > 100 µM
- TGI [5]: > 100 µM
- TGI [6]: > 100 µM
- TGI [7]: > 100 µM
- TGI [8]: > 100 µM
- TGI [9]: > 100 µM
- TGI [10]: > 100 µM
- TGI [11]: > 100 µM

Structure (SMILES): CCOC(=O)c1sc2nc(SC)nc3c2c1NCN3c1ccc(F)c(F)c1
- TGI [1]: > 66.5 µM
- TGI [2]: > 100 µM
- TGI [3]: > 100 µM
- TGI [4]: > 83.2 µM
- TGI [5]: 16.7 µM
- TGI [6]: > 100 µM
- TGI [7]: > 100 µM
- TGI [8]: > 100 µM
- TGI [9]: > 100 µM
- TGI [10]: > 45.8 µM
- TGI [11]: 12.4 µM

Structure (SMILES): CCCC(O)c1cn(C(NC(=O)c2ccccc2)P(=O)(OCC)OCC)nn1 (stereo not given)
- TGI [1]: > 100 µM
- TGI [2]: > 100 µM
- TGI [3]: > 100 µM
- TGI [4]: > 100 µM
- TGI [5]: > 100 µM
- TGI [6]: > 100 µM
- TGI [7]: > 100 µM
- TGI [8]: > 100 µM
- TGI [9]: > 100 µM
- TGI [10]: > 100 µM
- TGI [11]: > 100 µM

Structure (SMILES): CC(=O)OCC1OC(OCCCCCCO)C(OC(C)=O)C(OC(C)=O)C1OC(C)=O (stereo not given)
- TGI [1]: > 100 µM
- TGI [2]: > 100 µM
- TGI [4]: > 100 µM
- TGI [5]: > 100 µM
- TGI [6]: > 100 µM
- TGI [7]: > 100 µM
- TGI [8]: > 100 µM
- TGI [9]: > 100 µM
- TGI [10]: > 100 µM

Structure (SMILES): COC(OC)C1OCC(n2cc(F)c(=O)[nH]c2=O)C1O (stereo not given)
- TGI [1]: > 100 µM
- TGI [2]: > 100 µM
- TGI [3]: > 100 µM
- TGI [4]: > 100 µM
- TGI [5]: > 100 µM
- TGI [6]: > 100 µM
- TGI [7]: > 100 µM
- TGI [8]: > 100 µM
- TGI [9]: > 100 µM
- TGI [10]: > 100 µM
- TGI [11]: > 100 µM

Structure (SMILES): C(=Nc1ccc(-c2nc3ccccc3[nH]2)cc1)c1ccc[nH]1
- TGI [1]: > 100 µM
- TGI [2]: > 100 µM
- TGI [3]: > 100 µM
- TGI [5]: > 100 µM
- TGI [6]: > 100 µM
- TGI [7]: > 100 µM
- TGI [8]: > 100 µM
- TGI [9]: > 100 µM
- TGI [10]: > 100 µM
- TGI [11]: > 100 µM

Structure (SMILES): O=C(CCCCCC(=O)N1CC(CCl)c2ccc([N+](=O)[O-])cc21)N1CC(CCl)c2ccc([N+](=O)[O-])cc21 (stereo not given)
- TGI [1]: > 100 µM
- TGI [2]: > 100 µM
- TGI [3]: > 100 µM
- TGI [4]: > 100 µM
- TGI [5]: > 100 µM
- TGI [6]: > 100 µM
- TGI [7]: > 100 µM
- TGI [8]: 88.8 µM
- TGI [10]: > 100 µM
- TGI [11]: > 100 µM

Structure (SMILES): C[n+]1c(-c2ccc(/C=N/Nc3ccnc(N/N=C/c4ccc(-c5cn6ccsc6[n+]5C)cc4)n3)cc2)cn2ccsc21
- TGI [1]: 78.5 µM
- TGI [2]: 66.6 µM
- TGI [3]: 87.9 µM
- TGI [4]: > 100 µM
- TGI [5]: 51.9 µM
- TGI [6]: > 100 µM
- TGI [7]: 76.2 µM
- TGI [8]: > 100 µM
- TGI [9]: > 100 µM
- TGI [10]: 38.6 µM
- TGI [11]: 46.6 µM
